Reference: PubChem BioAssay (NCI)
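Exposure lasted 48 hours, with cells grown in 96-well plates and compounds tested at five concentrations. TGI is the concentration that stops growth completely.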

Columns and labels:
Assay in all cases: DTP human tumour cell line panel, 48 h
TK-10 renal = system: TK-10 renal
MALME-3M melanoma = system: MALME-3M melanoma
SNB-19 CNS = system: SNB-19 CNS
OVCAR-5 ovarian = system: OVCAR-5 ovarian
COLO 205 colon = system: COLO 205 colon
DLD-1 colon = system: DLD-1 colon
HOP-62 NSCLC = system: HOP-62 NSCLC
RXF 393 renal = system: RXF 393 renal
OVCAR-8 ovarian = system: OVCAR-8 ovarian
EKVX NSCLC = system: EKVX NSCLC
ACHN renal = system: ACHN renal
HCT-15 colon = system: HCT-15 colon
XF 498 CNS = system: XF 498 CNS
SW-620 colon = system: SW-620 colon
SK-MEL-28 melanoma = system: SK-MEL-28 melanoma
CAKI-1 renal = system: CAKI-1 renal
CCRF-CEM leukemia = system: CCRF-CEM leukemia
HT29 colon = system: HT29 colon
SNB-75 CNS = system: SNB-75 CNS
786-0 renal = system: 786-0 renal
DMS 273 small cell lung = system: DMS 273 small cell lung
UACC-62 melanoma = system: UACC-62 melanoma
U251 CNS = system: U251 CNS
SF-268 CNS = system: SF-268 CNS
OVCAR-4 ovarian = system: OVCAR-4 ovarian
M19-MEL melanoma = system: M19-MEL melanoma
HOP-18 NSCLC = system: HOP-18 NSCLC
MOLT-4 leukemia = system: MOLT-4 leukemia
NCI-H522 lung = system: NCI-H522 lung
M14 melanoma = system: M14 melanoma
UO-31 renal = system: UO-31 renal
SR leukemia = system: SR leukemia
HL-60(TB) leukemia = system: HL-60(TB) leukemia
KM12 colon = system: KM12 colon
OVCAR-3 ovarian = system: OVCAR-3 ovarian
RPMI-8226 leukemia = system: RPMI-8226 leukemia
KM20L2 colon = system: KM20L2 colon
HCC-2998 colon = system: HCC-2998 colon
A549 NSCLC = system: A549 NSCLC
SK-OV-3 ovarian = system: SK-OV-3 ovarian
IGROV1 ovarian = system: IGROV1 ovarian
LXFL 529 NSCLC = system: LXFL 529 NSCLC
SNB-78 CNS = system: SNB-78 CNS
UACC-257 melanoma = system: UACC-257 melanoma
HCT-116 colon = system: HCT-116 colon
SK-MEL-5 melanoma = system: SK-MEL-5 melanoma
SF-539 CNS = system: SF-539 CNS
A498 renal = system: A498 renal
K-562 leukemia = system: K-562 leukemia
NCI-H23 lung = system: NCI-H23 lung
LOX IMVI melanoma = system: LOX IMVI melanoma
NCI-H226 lung = system: NCI-H226 lung
HOP-92 NSCLC = system: HOP-92 NSCLC
DMS 114 small cell lung = system: DMS 114 small cell lung
SN12C renal = system: SN12C renal
SF-295 CNS = system: SF-295 CNS
NCI-H460 lung = system: NCI-H460 lung
SK-MEL-2 melanoma = system: SK-MEL-2 melanoma

O=C1Oc2cc3c(c4cccc1c24)OCN(c1ccc(Cl)cc1)C3
TGI (TK-10 renal): > 100 µM | TGI (MALME-3M melanoma): > 60.7 µM | TGI (SNB-19 CNS): > 100 µM | TGI (OVCAR-5 ovarian): > 77.3 µM | TGI (COLO 205 colon): > 100 µM | TGI (DLD-1 colon): > 54.2 µM | TGI (HOP-62 NSCLC): > 100 µM | TGI (RXF 393 renal): > 84.2 µM | TGI (OVCAR-8 ovarian): > 100 µM | TGI (EKVX NSCLC): > 100 µM | TGI (ACHN renal): > 100 µM | TGI (HCT-15 colon): > 64.7 µM | TGI (XF 498 CNS): 45.6 µM | TGI (SW-620 colon): > 55.3 µM | TGI (SK-MEL-28 melanoma): > 93.6 µM | TGI (CAKI-1 renal): > 100 µM | TGI (CCRF-CEM leukemia): 45.7 µM | TGI (HT29 colon): > 100 µM | TGI (SNB-75 CNS): > 100 µM | TGI (786-0 renal): 34.5 µM | TGI (DMS 273 small cell lung): > 100 µM | TGI (UACC-62 melanoma): > 75 µM | TGI (U251 CNS): > 79.5 µM | TGI (SF-268 CNS): > 100 µM | TGI (OVCAR-4 ovarian): 96.6 µM | TGI (M19-MEL melanoma): > 57 µM | TGI (HOP-18 NSCLC): 91.5 µM | TGI (MOLT-4 leukemia): 51.4 µM | TGI (NCI-H522 lung): 30.8 µM | TGI (M14 melanoma): > 57.8 µM | TGI (UO-31 renal): 32.2 µM | TGI (SR leukemia): 49 µM | TGI (HL-60(TB) leukemia): > 55.5 µM | TGI (KM12 colon): > 63.6 µM | TGI (OVCAR-3 ovarian): > 57.4 µM | TGI (RPMI-8226 leukemia): 42.1 µM | TGI (KM20L2 colon): > 100 µM | TGI (HCC-2998 colon): > 100 µM | TGI (A549 NSCLC): > 100 µM | TGI (SK-OV-3 ovarian): > 100 µM | TGI (IGROV1 ovarian): > 100 µM | TGI (LXFL 529 NSCLC): 25 µM | TGI (SNB-78 CNS): > 100 µM | TGI (UACC-257 melanoma): > 100 µM | TGI (HCT-116 colon): 29.3 µM | TGI (SK-MEL-5 melanoma): > 100 µM | TGI (SF-539 CNS): 23.9 µM | TGI (A498 renal): > 100 µM | TGI (K-562 leukemia): 53.2 µM | TGI (NCI-H23 lung): > 100 µM | TGI (LOX IMVI melanoma): 17.7 µM | TGI (NCI-H226 lung): > 100 µM | TGI (HOP-92 NSCLC): 49.1 µM | TGI (DMS 114 small cell lung): > 57.2 µM | TGI (SN12C renal): 29.1 µM | TGI (SF-295 CNS): > 100 µM | TGI (NCI-H460 lung): > 100 µM

Cc1nc2nnc(C)n2c2c1C(=O)Nc1ccccc1N2
TGI (TK-10 renal): > 100 µM | TGI (MALME-3M melanoma): > 100 µM | TGI (SNB-19 CNS): > 100 µM | TGI (COLO 205 colon): > 100 µM | TGI (DLD-1 colon): > 100 µM | TGI (HOP-62 NSCLC): > 100 µM | TGI (RXF 393 renal): > 100 µM | TGI (OVCAR-8 ovarian): > 100 µM | TGI (EKVX NSCLC): > 100 µM | TGI (ACHN renal): > 100 µM | TGI (SK-MEL-2 melanoma): > 100 µM | TGI (XF 498 CNS): > 100 µM | TGI (SW-620 colon): > 100 µM | TGI (SK-MEL-28 melanoma): > 100 µM | TGI (CCRF-CEM leukemia): > 100 µM | TGI (HT29 colon): > 100 µM | TGI (SNB-75 CNS): > 100 µM | TGI (786-0 renal): > 100 µM | TGI (DMS 273 small cell lung): > 100 µM | TGI (UACC-62 melanoma): > 100 µM | TGI (U251 CNS): > 100 µM | TGI (SF-268 CNS): > 100 µM | TGI (M19-MEL melanoma): > 100 µM | TGI (HOP-18 NSCLC): > 100 µM | TGI (MOLT-4 leukemia): > 100 µM | TGI (NCI-H522 lung): > 100 µM | TGI (M14 melanoma): > 100 µM | TGI (UO-31 renal): > 100 µM | TGI (SR leukemia): > 100 µM | TGI (HL-60(TB) leukemia): > 100 µM | TGI (KM12 colon): > 100 µM | TGI (OVCAR-3 ovarian): > 100 µM | TGI (RPMI-8226 leukemia): > 100 µM | TGI (KM20L2 colon): > 100 µM | TGI (HCC-2998 colon): > 100 µM | TGI (A549 NSCLC): > 100 µM | TGI (SK-OV-3 ovarian): > 100 µM | TGI (IGROV1 ovarian): > 100 µM | TGI (LXFL 529 NSCLC): > 100 µM | TGI (SNB-78 CNS): > 100 µM | TGI (UACC-257 melanoma): > 100 µM | TGI (HCT-116 colon): > 100 µM | TGI (SF-539 CNS): > 100 µM | TGI (K-562 leukemia): > 100 µM | TGI (NCI-H23 lung): > 100 µM | TGI (LOX IMVI melanoma): > 100 µM | TGI (NCI-H226 lung): > 100 µM | TGI (HOP-92 NSCLC): > 100 µM | TGI (DMS 114 small cell lung): > 100 µM | TGI (SN12C renal): > 100 µM | TGI (SF-295 CNS): > 100 µM | TGI (NCI-H460 lung): > 100 µM
